In patent US6235891A, “Glucocorticoid receptor agonist and decreased PP5” (South Alabama Medical Science Foundation, priority 1999, dated 2001):

Key:
PP5 mRNA = test: Northern blot analysis of PP5 mRNA expression in A549 cells; assay type: cell-based, human; settings: dexamethasone 0-100 nM, 24 hours
p53 phosphorylation = test: Immunoprecipitation of [32P]-labelled p53 from A549 cells; assay type: cell-based, human; settings: six hours, 100 nM dexamethasone or 300 nM ISIS 15534
Method: Immunoprecipitation of p53 protein. A549 cells were cultured in 60 mm dishes until the cell cultures were about 80% confluent, washed with PBS and placed for 1 hour in phosphate-free DMEM containing 5% fetal bovine serum. The cell cultures were then treated with 100 nM dexamethasone or 300 nM ISIS 15521 or ISIS 15534 as described previously (Zuo et al. 1998), three dishes per group, and [^32 P] phosphate (0.2 mCi/ml) was added to the media. Six hours after treatment, the cells were collected, washed with ice-cold PBS and stored at -80° C. prior to analysis. […]
Referring to FIGS. 2A-2C, Northern blot analysis of 549 cells following treatment with dexamethasone and/or ISIS 15534 is shown. […] After 24 hours, 20 μg of total RNA was prepared and analyzed for serine/threonine protein phosphatase 5 (PP5), p21^Waf1/Cip1 (p21), and serum/glucocorticoid inducible kinase (sgk) mRNA levels. […] Six hours later, the protein extracts were prepared, and changes in p53 phosphorylation were determined by immunoprecipitation, SDS-PAGE analysis, and visualized by autoradiography (Control, p53 from control cells; ISIS 15534, p53 from cells treated with 500 nM ISIS 15534; Dex, p53 from cells treated with 100 nM dexamethasone).Referring to FIG. 2E, a Western analysis of an Immobilon membrane produced by the transfer of protein from the SDS-PAGE gel and detected with an anti-p53 mouse monoclonal antibody is shown.

In the case of `C[C@@H]1C[C@H]2[C@@H]3CCC4=CC(=O)C=C[C@]4(C)[C@@]3(F)[C@@H](O)C[C@]2(C)[C@@]1(O)C(=O)CO` [dexamethasone, reference compound], the “Expression of PP5 mRNA” value (PP5 mRNA) is reported as “does not appear to change” and the “Phosphorylation of p53” value (p53 phosphorylation) is reported as “hyperphosphorylation of p53”.
